In patent publication EP0983275B1, “NOVEL TRIPTOLIDE DERIVATIVES USEFUL IN THE TREATMENT OF AUTOIMMUNE DISEASES” (priority 1997, dated 1998):
In brackets after ≈: the same amount, converted by molar mass.

Key:
Jurkat E6-1 cell line = experiment: Cell viability (MTT mitochondrial enzyme assay); assay type: cell-based, human; settings: cells of the IL-2 assay after removal of supernatant, MTT 4 hours at 37°C
Protocol: (§1) Jurkat E6-1 cell line (ATCC), a human leukemic T cell line or lymphocytes prepared from fresh human blood, are grown in complete culture medium consisting of RPMI-1640 (Mediatech) supplemented with 10% v/v fetal bovine serum (HyClone, Logen, Vermont), penicillin (100 units/mL), streptomycin ([…]), and 2mM L-glutamine (GIBCO, Grand Island, New York). The cells are grown to a concentration of between 1.2 to 1.8 X 10^6 cells/mL before use. The cells are then centrifuged at low speed and resuspended to a concentration of 1.25 X 10^6 cells/mL in fresh medium.
(§2) The compounds to be tested are dissolved in DMSO, and water is added to make a 50% DMSO/water solution. The compounds are then diluted in sterile water such that the DMSO concentrations are less then 0.05%. The cells at a concentration of 1.25 X 10^6 cells/mL are stimulated with phytohemagglutinin 10 µg/mL (PHA) and 10^-8 M phorbol ester (12-O-tetradecanoylphorbol 13-acetate: TPA), (Sigma, St. Louis, Missouri). The compounds are then added and the cells are plated in flat-bottom tissue culture plates (Falcon, Lincoln Park, New Jersey), with 250,000 cells/well. Plates are then incubated at 37°C in a 5% CO2 atmosphere.
(§3) After incubation (16-24 hours), the cells are assayed for IL-2 production and cell viability (MTT). IL-2 production is assayed utilizing a solid phase ELISA immunoassay, sold in kit form by R&D Systems, Inc., Minneapolis, Minnesota.
Cell viability is measured by the use of a mitochondrial enzyme assay. After removal of the supernatant for the IL-2 assay, Cell Titer 96 (a commercial solution of MTT obtained from Promega, Madison, Wisconsin), is added to the plates and incubated for 4 hours at 37°C. A solubilization solution is then added and incubated overnight. The plates are then read on an ELISA plate reader at a wavelength of 570 nm. Table II presents the results for the Interleukin-2 assay, the cell viability assay and the ratio of cell viability/IL-2 inhibition.

[1] = Body weight change (weight gain) in the rat model of adjuvant-induced arthritis; assay type: in vivo, Male Wistar-Lewis rats; settings: 10 mg/kg/day i.p.; weight gain between day 1 and day 21
Protocol: (§4) Following generally the procedure of Pearson and Wood, Arth. Rheum., 2, 44 (1959), the anti-inflammatory activity of the following compounds was determined in a rat model of adjuvant-induced arthritis. Male Wistar-Lewis rats (Mollegaard, Breeding Centre Ltd, BIBY, DK 4623 LI, SKENSVED, P.P. Box 28, DK) with a body weight between 160 g and 200 g are used. Freund's adjuvant (0.1 mL, 6 mg Mycobacterium smegmatis suspension per mL in heavy white paraffin oil, Merck/Darmstadt) was injected into the base of the tail. Between day 10 and day 14 of the test, immunopathological processes let to chronic inflammation, especially in the form of arthritic and periarthritic symptoms in all parts of the body. The animals received standardized food Altromin-R (Altrogge, Lage) and had free access to water. The compounds were administered i.p. (a suspension in carboxymethyl cellulose solution in an injection volume of 0.5 mL/100 g body weight) on 12 consecutive days, starting with the day of the adjuvant injection. On day 1 and day 18 of the study, the volume of both hind paws and the body weight were recorded, and in addition on day 18 the arthritis index. Cyclosporin A and Prednisolone were used as standard compounds. In addition, table IV presents the percent change in body weight (weight gain) between day 1 and day 21 of the above test.

IL-2 production = experiment: Interleukin-2 assay (IL-2 production by ELISA after PHA/TPA stimulation); assay type: cell-based; settings: Jurkat E6-1 cells or human lymphocytes stimulated with PHA 10 µg/mL and 10^-8 M TPA; 16-24 hours
Protocol: as §1, §2, §3

[2] = tested on: adjuvant-induced arthritis; experiment: Anti-inflammatory activity in the rat model of adjuvant-induced arthritis; assay type: in vivo, Male Wistar-Lewis rats; settings: 12 consecutive days
Protocol: as §4, with “Between day 10 and day 14 of the test, immunopathological processes let to chronic inflammation, especially in the form of arthritic and periarthritic symptoms in all parts of the body.” left out, “index.” for “index. Cyclosporin A and Prednisolone were used as standard compounds. In addition, table IV presents the percent change in body weight (weight gain) between day 1 and day 21 of the above test.”

In the case of `CC(C)C12OC1C1OC13C1(C)CCC4=C(COC4=O)C1CCC3(O)C2O` (stereo not drawn) [Example 1, [5aR-(5aα,6α,6aα,7aα,7bβ,8aS*,8bα)]-3,3b,4,5,5a,6,6a,7a,7b,8b,9,10-dodecahydro-5a,6-dihydroxy-8b-methyl-6a-(1-methylethyl)-1H-bisoxireno[4b,5:6,7]phenanthro[1,2-c]furan-1-one], the IC50/MTT (Jurkat E6-1 cell line) was 0.3 to 0.5 µg/mL, the “% Change in Body Weight” value [1] was 29.9% and the IC50/IL-2 (IL-2 production) was 0.036 µg/mL (≈ 0.0993 µM). The “% Inhibition” value ([2]; 10 mg/kg/day i.p.) was 90%.
In the case of `C[C@]12C=CC(=O)C=C1CC[C@@H]1[C@@H]2[C@@H](O)C[C@@]2(C)[C@H]1CC[C@]2(O)C(=O)CO` [Prednisolone], the “% Inhibition” value ([2]; 15 mg/kg/day i.p.) was 100%.
With `CC(C)[C@]12O[C@H]1[C@@H]1O[C@]13[C@]1(O[C@H]1C[C@H]1C4=C(CC[C@@]13C)C(=O)OC4)[C@@H]2O` [Triptolide] the IC50 (Jurkat E6-1 cell line; Homo sapiens, Jurkat E6.1) was 0.005 µg/mL (≈ 0.0139 µM), the IC50 (IL-2 production) was 0.001 to 0.003 µg/mL (≈ 0.00277 to 0.00832 µM) and the “% Inhibition” value ([2]; 0.2 mg/kg/day i.p.) was 70%. For the same compound, the “% Inhibition” value ([2]; 0.4 mg/kg/day i.p.) was 85% and the “% Inhibition” value ([2]; 0.8 mg/kg/day i.p.) was 76%.
With “[1S-(1α,2β,3α,3aβ,4aR*,4bα,11aα)]-3-chloro-1,2,3,3a,4b,5,6,9,9b,10,11,11a-dodecahydro-1,2,11a-trihydroxy-4b-methyl-2-(1-methylethyl)-7H-oxireno[4b,5]phenanthro[1,2-c]furan-7-one [Example 2]” the IC50/MTT (Jurkat E6-1 cell line) was 0.55 µg/mL and the IC50/IL-2 (IL-2 production) was 0.06 µg/mL.
